“And” between values parts separate entries of the source, which are not always exact repeats. Equal values may be shown once. Inconclusive results and toxic doses are left out. The calls were made as follows: active = survival T/C of 150% or more; inactive = T/C below 125% in these data.
System: P388 leukemia ip, CD2F1 mice, survival T/C
Assay: NCI In Vivo Anticancer Drug Screen. Data for tumor model P388 Leukemia (intraperitoneal) in CD2F1 (CDF1) mice
Conditions: endpoint: median survival time, higher = longer survival
How it was run: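 Mice carrying the transplanted tumor received test compound or vehicle. Survival was recorded in each group, and the value is the treated-group measurement divided by that of the vehicle-treated control group.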

[1] = dose: 50.0 mg/kg/injection, schedule: Q01DX009 (ip), vehicle: saline
[2] = dose: 100.0 mg/kg/injection, schedule: Q01DX009 (ip), vehicle: saline
[3] = dose: 200.0 mg/kg/injection, schedule: Q01DX009 (ip), vehicle: saline
[4] = dose: 50.0 mg/kg/injection, schedule: Q01DX009 (ip), vehicle: saline with Tween-80
[5] = dose: 100.0 mg/kg/injection, schedule: Q01DX009 (ip), vehicle: saline with Tween-80
[6] = dose: 200.0 mg/kg/injection, schedule: Q01DX009 (ip), vehicle: saline with Tween-80
[7] = dose: 50.0 mg/kg/injection, schedule: Q01DX005 (ip), vehicle: saline with Tween-80
[8] = dose: 100.0 mg/kg/injection, schedule: Q01DX005 (ip), vehicle: saline with Tween-80
[9] = dose: 200.0 mg/kg/injection, schedule: Q01DX005 (ip), vehicle: saline with Tween-80
[10] = dose: 60.0 mg/kg/injection, schedule: Q01DX005 (ip), vehicle: Klucel (hydroxypropylcellulose) (HPC)
[11] = dose: 120.0 mg/kg/injection, schedule: Q01DX005 (ip), vehicle: Klucel (hydroxypropylcellulose) (HPC)
[12] = dose: 240.0 mg/kg/injection, schedule: Q01DX005 (ip), vehicle: Klucel (hydroxypropylcellulose) (HPC)
[13] = dose: 25.0 mg/kg/injection, schedule: Q01DX009 (ip), vehicle: saline with Tween-80
[14] = dose: 60.0 mg/kg/injection, schedule: Q01DX005 (ip), vehicle: saline
[15] = dose: 120.0 mg/kg/injection, schedule: Q01DX005 (ip), vehicle: saline
[16] = dose: 240.0 mg/kg/injection, schedule: Q01DX005 (ip), vehicle: saline
[17] = dose: 100.0 mg/kg/injection, schedule: Q01DX005 (ip), vehicle: Klucel (hydroxypropylcellulose) (HPC)
[18] = dose: 200.0 mg/kg/injection, schedule: Q01DX005 (ip), vehicle: Klucel (hydroxypropylcellulose) (HPC)
[19] = dose: 100.0 mg/kg/injection, schedule: Q04DX002 (ip), vehicle: saline with Tween-80
[20] = dose: 200.0 mg/kg/injection, schedule: Q04DX002 (ip), vehicle: saline with Tween-80
[21] = dose: 400.0 mg/kg/injection, schedule: Q04DX002 (ip), vehicle: saline with Tween-80
[22] = dose: 100.0 mg/kg/injection, schedule: Q04DX003 (ip), vehicle: saline with Tween-80
[23] = dose: 200.0 mg/kg/injection, schedule: Q04DX003 (ip), vehicle: saline with Tween-80
[24] = dose: 400.0 mg/kg/injection, schedule: Q04DX003 (ip), vehicle: saline with Tween-80
[25] = dose: 50.0 mg/kg/injection, schedule: Q01DX005 (ip), vehicle: Klucel (hydroxypropylcellulose) (HPC)

Measured: T/C

O=N[O-].O=[N+]([O-])O.[Co+3].[NH2-].[NH2-].[NH2-].[NH2-].[NH2-]
inactive: dose: 12.5 mg/kg/injection, schedule: Q01DX001 (ip), vehicle: saline 97 % of control | dose: 25.0 mg/kg/injection, schedule: Q01DX001 (ip), vehicle: saline 110 % of control

CS(=O)(=O)OC[C@@H](O)[C@@H](O)COS(C)(=O)=O
inactive: [1] 112 % of control | dose: 100.0 mg/kg/injection, schedule: Q01DX009 (ip), vehicle: saline sonified 110 % of control | [2] 99 % of control | dose: 200.0 mg/kg/injection, schedule: Q01DX009 (ip), vehicle: saline sonified 100 % of control | [3] 99 % of control | dose: 400.0 mg/kg/injection, schedule: Q01DX009 (ip), vehicle: saline sonified 100 % of control

COc1ccc(C2c3cc4c(cc3OC(N3CCCC3)C2C)OCO4)c(OC)c1 (configuration not stated)
inactive: dose: 60.0 mg/kg/injection, schedule: Q01DX005 (ip), vehicle: saline with Tween-80 99 % of control | dose: 120.0 mg/kg/injection, schedule: Q01DX005 (ip), vehicle: saline with Tween-80 99 % of control | dose: 240.0 mg/kg/injection, schedule: Q01DX005 (ip), vehicle: saline with Tween-80 97 % of control

C=CCNC(=O)c1ccccc1SC(C)=O
inactive: [4] 117 % of control and 119 % of control | [5] 120 % of control | [6] 114 % of control

CC1CC=CCC1C1OC(C)C(C)O1 (configuration not stated)
inactive: [7] 110 % of control | [8] 106 % of control | [9] 109 % of control

Cc1cc(-n2c(C)nc3ccccc3c2=O)on1
inactive: [10] 101 % of control | [11] 93 % of control | [12] 104 % of control

O=C(NCc1ccc(Cl)cc1)OCc1c2ccccc2cc2ccccc12
inactive: dose: 50.0 mg/kg/injection, schedule: Q01DX009 (ip), vehicle: Klucel (hydroxypropylcellulose) (HPC) 95 % of control | dose: 100.0 mg/kg/injection, schedule: Q01DX009 (ip), vehicle: Klucel (hydroxypropylcellulose) (HPC) 93 % of control

C=CC[P+](CC[P+](CC=C)(c1ccccc1)c1ccccc1)(c1ccccc1)c1ccccc1
inactive: dose: 6.25 mg/kg/injection, schedule: Q04DX002 (ip), vehicle: saline 102 % of control | dose: 12.5 mg/kg/injection, schedule: Q04DX002 (ip), vehicle: saline 96 % of control

O=C(CCSSCCC(=O)ON1C(=O)CCC1=O)ON1C(=O)CCC1=O
inactive: dose: 6.25 mg/kg/injection, schedule: Q01DX009 (ip), vehicle: saline with Tween-80 100 % of control | dose: 12.5 mg/kg/injection, schedule: Q01DX009 (ip), vehicle: saline with Tween-80 105 % of control | [13] 112 % of control

O=S(=O)(O)CC(O)CNC(CO)(CO)CO (configuration not stated)
inactive: [14] 104 % of control | [15] 98 % of control | [16] 104 % of control

CC(C)C(=O)CCC(=O)O
inactive: dose: 50.0 mg/kg/injection, schedule: Q01DX005 (ip), vehicle: saline 106 % of control | dose: 100.0 mg/kg/injection, schedule: Q01DX005 (ip), vehicle: saline 97 % of control | dose: 200.0 mg/kg/injection, schedule: Q01DX005 (ip), vehicle: saline 98 % of control

Nc1cc(Cl)c(Cl)c(Cl)c1N
inactive: dose: 12.5 mg/kg/injection, schedule: Q01DX009 (ip), vehicle: saline 106 % of control | dose: 25.0 mg/kg/injection, schedule: Q01DX009 (ip), vehicle: saline 104 % of control | [4] 105 % of control | [1] 103 % of control | [5] 105 % of control | [2] 105 % of control and 93 % of control | [6] 102 % of control | [3] 123 % of control and 93 % of control and 94 % of control

O=c1nc2sccn2c2ncccc12
inactive: dose: 3.75 mg/kg/injection, schedule: Q01DX005 (ip), vehicle: saline with Tween-80 96 % of control | dose: 7.5 mg/kg/injection, schedule: Q01DX005 (ip), vehicle: saline with Tween-80 94 % of control | dose: 15.0 mg/kg/injection, schedule: Q01DX005 (ip), vehicle: saline with Tween-80 88 % of control

Clc1ncnc2ccccc12
inactive: [7] 105 % of control | [8] 89 % of control

c1ccc2c[n+](CC[n+]3ccc4ccccc4c3)ccc2c1
inactive: [13] 100 % of control | [4] 118 % of control

O=[N+]([O-])c1ccc(CN2CCC(C(=S)Nc3ccccc3)=C2c2ccccc2)cc1
inactive: dose: 6.25 mg/kg/injection, schedule: Q01DX005 (ip), vehicle: Klucel (hydroxypropylcellulose) (HPC) 92 % of control | dose: 12.5 mg/kg/injection, schedule: Q01DX005 (ip), vehicle: Klucel (hydroxypropylcellulose) (HPC) 90 % of control | dose: 25.0 mg/kg/injection, schedule: Q01DX005 (ip), vehicle: Klucel (hydroxypropylcellulose) (HPC) 87 % of control | [17] 92 % of control | [18] 87 % of control

Cc1ccc(NC(=S)SCc2ccc(Cl)cc2)cc1C
inactive: dose: 50.0 mg/kg/injection, schedule: Q01DX009 (ip), vehicle: suspension in saline 101 % of control | dose: 100.0 mg/kg/injection, schedule: Q01DX009 (ip), vehicle: suspension in saline 107 % of control | dose: 200.0 mg/kg/injection, schedule: Q01DX009 (ip), vehicle: suspension in saline 97 % of control

COc1cc2c(cc1OC)C1Cc3ccc(OC)c(OC)c3CN1CC2 (configuration not stated)
inactive: [1] 104 % of control | [10] 100 % of control | [2] 101 % of control | [11] 109 % of control | [3] 99 % of control | [12] 108 % of control

CCCCCCn1c(Cl)c(C(=O)O)c2ccccc21
inactive: [19] 99 % of control | [20] 97 % of control | [21] 95 % of control

CCB1OCC(C2OC(O)C3OB(CC)OC32)O1 (configuration not stated)
inactive: [7] 101 % of control and 96 % of control | [8] 96 % of control | [9] 103 % of control and 92 % of control

OCC1CC=CCC1 (configuration not stated)
inactive: [22] 90 % of control | [23] 100 % of control | [24] 90 % of control

COc1cc2ccc3c(c2cc1OC)CNCC3
inactive: [1] 100 % of control | [2] 100 % of control

COCOc1c(C)ccc2c1CCC2
inactive: [19] 91 % of control | [20] 97 % of control | [21] 95 % of control

O=C(c1ccc(Cl)cc1)n1c(Cl)c(/C=N\Nc2ccccc2[N+](=O)[O-])c2ccccc21
inactive: [22] 93 % of control | [23] 90 % of control | [24] 92 % of control

COC(=O)c1nc(N)nc(C(=O)OC)c1C(=O)c1ccncc1
inactive: [10] 92 % of control | [11] 96 % of control

N#Cc1c(O)c(-c2ccccc2)c(=O)n2c1[nH]c1ccccc12
inactive: [25] 101 % of control | [17] 104 % of control | [18] 113 % of control

CNC(=O)Oc1c(C)[nH]ccc1=O
inactive: dose: 400.0 mg/kg/injection, schedule: Q01DX009 (ip), vehicle: saline 107 % of control

O=C1C=C(n2ccccc2=O)CCC1
inactive: [14] 93 % of control | [15] 93 % of control | [16] 102 % of control

COC(=O)Cn1/c(=N\N=C\c2ccc(C)cc2)sc2ccccc21
inactive: dose: 100.0 mg/kg/injection, schedule: Q01DX001 (ip), vehicle: saline with Tween-80 91 % of control | dose: 200.0 mg/kg/injection, schedule: Q01DX001 (ip), vehicle: saline with Tween-80 91 % of control | dose: 400.0 mg/kg/injection, schedule: Q01DX001 (ip), vehicle: saline with Tween-80 89 % of control

CC(NC(=O)C(Cl)Cl)C(=O)O (configuration not stated)
inactive: [25] 96 % of control | [17] 99 % of control | [18] 96 % of control

NS(=O)(=O)c1cc(S(=O)(=O)Cl)ccc1Cl
inactive: dose: 12.5 mg/kg/injection, schedule: Q01DX005 (ip), vehicle: saline with Tween-80 100 % of control | dose: 25.0 mg/kg/injection, schedule: Q01DX005 (ip), vehicle: saline with Tween-80 100 % of control | [7] 99 % of control and 94 % of control

Source: PubChem BioAssay AID330 (DTP/NCI, 2004)
